Columns and labels:
Nalm6 leukemia cells = experiment: CD22 expression on Nalm6 in NSG mice after a single dose of Bryostatin 1; assay type: in vivo; conditions: single dose I.P.
Description: FIGS. 3A-3D: (FIG. 3A) Four cell lines (Nalm6, Kopn8, Pfieffer and Toldeo) were co-incubated with 1 ng/ml Bryostatin 1 for 24 hours and analyzed using flow cytometry one day after Bryostatin 1 exposure. Site density was analyzed using standardized Quantibrite-PE beads. (FIG. 3B) Cell lines were co-incubated with 1 ng/ml Bryostatin 1 for 24 hours, washed, and analyzed using flow cytometry at 1 and 7 days after Bryostatin 1 exposure. Fold change was calculated based on site density: (Cell line Bryostatin 1—Cell line DMSO)/Cell line DMSO. (FIG. 3C) NSG mice were injected with 1×10^6 GPF-positive Nalm6 leukemia cells on Day 0. Bryostatin 1 was administered at 0.8 μg/kg on Day 3. Mice were sacrificed 7 and 12 days after Bryostatin 1 injection and CD22 was evaluated by flow cytometry. (FIG. 3D) CD22-low relapse PDX cell line was cultured in vitro with 1 nmol/L Bryostatin 1 for 24 hours and measured for CD22 expression using CD22 antibody. […]
FACS analysis of cell surface CAR and protein expression was performed using an LSR II Fortessa flow cytometer (BD Biosciences). CD22-CAR was detected by incubation with 22-Fc (R&D Systems), followed by incubation with human IgG-specific PE-F(ab)2 (Thermo Fisher Scientific). […] CD22 site density was determined using QuantiBrite-PE beads (BD Biosciences) using methods previously described (Jasper et al., Cytometry B Clin Cytom 80(2):83-90, 2011). […]

PKC-βII = target: T1, PKC-βII (Homo sapiens, UniProt P05771); experiment: PKC-βII western blot of Bryostatin 1-treated cell lines; assay type: cell-based; conditions: 24 hours exposure
T1 construct: Leukemia cell protein extracts were prepared by lysing cells with RIPA buffer; endogenous in cells; host or cells: Toledo, Kopn8, Nalm6
Description: FIGS. 10A-10E: (FIG. 10A) Three cell lines (Toldeo, Kopn8 and Nalm6) were co-incubated with Bryostatin 1 at varying concentrations for 24 hours. At 24 hours, cells were collected for protein kinase C (PKC)-βII isoform analysis by western blot. (FIG. 10B) KOPN8 or SEM cell lines were exposed to Bryostatin 1 for 16, 24, 48 or 72 hours. RNA was extracted from cells and analyzed using RNAseq. (FIG. 10C) Immunofluorescent staining of CD22 was conducted through permeabilization followed by staining of CD22. (FIG. 10D) Four cell lines were co-incubated with various combinations of Enzastaurin (10 μM), Staurosporine (100 μM), or Bryostatin 1 (1 nM) for 24 hours. CD22 expression was assessed using flow cytometry. MFI fold change=CD22 MFI^Bryostatin1/CD22 MFI^DMSO. (FIG. 10E) Cell lines were co-incubated with 1 nM Bryostatin 1 for 24 hours and measured for CD22 expression using CD22-PE antibody. MFI fold change=CD22 MFI^Bryostatin 1/CD22 MFI^DMSO.
Leukemia cell protein extracts were prepared by lysing cells with RIPA buffer and heating at 98° C. for 5 minutes. The proteins were separated on an SDS-PAGE gel and transferred to a nitrocellulose membrane. The membranes were immunoblotted with antibodies PKC-βII and GAPDH (Abcam), overnight at 4° C. […]

T1 sequence (P05771 1-673 isoform P05771-2): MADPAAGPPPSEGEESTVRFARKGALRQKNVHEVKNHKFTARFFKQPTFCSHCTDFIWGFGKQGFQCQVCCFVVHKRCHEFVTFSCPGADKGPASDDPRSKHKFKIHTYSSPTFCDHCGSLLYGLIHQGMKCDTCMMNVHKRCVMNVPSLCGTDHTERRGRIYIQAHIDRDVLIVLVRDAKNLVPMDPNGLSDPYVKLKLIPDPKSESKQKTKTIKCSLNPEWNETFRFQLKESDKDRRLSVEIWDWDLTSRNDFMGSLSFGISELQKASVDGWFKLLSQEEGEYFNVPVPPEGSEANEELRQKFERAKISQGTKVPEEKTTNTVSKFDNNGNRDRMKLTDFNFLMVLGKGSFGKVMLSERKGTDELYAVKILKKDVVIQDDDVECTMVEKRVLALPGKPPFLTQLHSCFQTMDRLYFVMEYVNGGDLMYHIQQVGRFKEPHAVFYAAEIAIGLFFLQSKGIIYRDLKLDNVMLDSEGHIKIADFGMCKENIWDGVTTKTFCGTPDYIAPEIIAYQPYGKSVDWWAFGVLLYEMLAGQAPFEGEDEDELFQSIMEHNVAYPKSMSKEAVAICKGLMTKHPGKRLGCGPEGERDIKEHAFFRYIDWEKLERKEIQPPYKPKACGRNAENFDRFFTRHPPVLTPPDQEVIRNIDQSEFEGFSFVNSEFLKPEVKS

## CCC/C=C/C=C/C(=O)O[C@H]1/C(=C/C(=O)OC)C[C@H]2C[C@H]([C@@H](C)O)OC(=O)C[C@H](O)C[C@@H]3C[C@H](OC(C)=O)C(C)(C)[C@](O)(C[C@@H]4C/C(=C/C(=O)OC)C[C@H](/C=C/C(C)(C)[C@]1(O)O2)O4)O3 [Bryostatin 1]
Nalm6 leukemia cells; 1 week
  CD22 MFI on Nalm6 in vivo: increased
Nalm6 leukemia cells; 12 days post-drug administration
  CD22 expression on Nalm6 in vivo: return to baseline expression
PKC-βII
  PKCβII protein levels on ALL: decreased

From patent US11939377B2, “Affinity matured CD22-specific monoclonal antibody and uses thereof” (The U.S.A., as represented by the Secretary, Department of …, priority 2018, dated 2024)
